Assay results from patent US20240174618A1, “SUBSTITUTED (2-HETEROARYLOXYPHENYL)SULFONATES, SALTS THEREOF AND THEIR USE AS HERBICIDAL AGENTS” (Bayer Aktiengesellschaft, priority 2021, published 2024).

Tests used:
Format in all cases: in vivo
[1] = system: Abutilon theophrasti (ABUTH); assay: A. Herbicidal pre-emergence efficacy, ABUTH; details: scored visually after about 3 weeks vs untreated controls
Method in brief: (§1)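 Applied before emergence onto covering soil at rates of 1280 g/ha or less, using 600 L/ha spray water with 0.5% additive. Scoring: visual % efficacy after ~3 weeks, greenhouse.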

[2] = system: Alopecurus myosuroides (ALOMY); assay: A. Herbicidal pre-emergence efficacy, ALOMY; details: 1280 g/ha; scored visually after about 3 weeks vs untreated controls
From the text: (§2) Seeds of mono- and dicotyledonous weed plants were placed in plastic pots in sandy loam soil (doubly sown with one species each of mono- or dicotyledonous weed plants per pot) and covered with soil. The compounds of the invention, formulated in the form of wettable powders (WP) or as emulsion concentrates (EC), were then applied onto the surface of the covering soil as aqueous suspension or emulsion with addition of 0.5% additive at a water application rate of 600 liters per hectare (converted). After the treatment, the pots were placed in a greenhouse and kept under good growth conditions for the test plants. After about 3 weeks, the efficacy of the preparations was scored visually in comparison with untreated controls as percentages.
(§3) For example, • 100% efficacy=plants have died, • 0% efficacy=like untreated control plants.
(§4) Tables A1a to A12c below show the effects of selected compounds of the general formula (I) according to table 1 on various harmful plants at an application rate corresponding to 1280 g/ha or less, which were obtained by the experimental procedure mentioned above.

[3] = system: Digitaria sanguinalis (DIGSA); assay: A. Herbicidal pre-emergence efficacy, DIGSA; details: scored visually after about 3 weeks vs untreated controls
Method in brief: as §1

[4] = system: Echinochloa crus-galli (ECHCG); assay: A. Herbicidal pre-emergence efficacy, ECHCG; details: scored visually after about 3 weeks vs untreated controls
Method in brief: as §1

[5] = system: Kochia scoparia (KCHSC); assay: A. Herbicidal pre-emergence efficacy, KCHSC; details: pre-emergence
Method in brief: as §1

[6] = system: Lolium rigidum (LOLRI); assay: A. Herbicidal pre-emergence efficacy, LOLRI
Method in brief: as §1

[7] = system: Matricaria inodora (MATIN); assay: A. Herbicidal pre-emergence efficacy, MATIN
From the text: as §2, §3, §4

[8] = system: Poa annua (POAAN); assay: A. Herbicidal pre-emergence efficacy, POAAN
Method in brief: as §1

[9] = system: Setaria viridis (SETVI); assay: A. Herbicidal pre-emergence efficacy, SETVI
Method in brief: as §1

[10] = system: Stellaria media (STEME); assay: A. Herbicidal pre-emergence efficacy, STEME
Method in brief: as §1

[11] = system: Veronica persica (VERPE); assay: A. Herbicidal pre-emergence efficacy, VERPE
Method in brief: as §1

[12] = system: Amaranthus retroflexus (AMARE); assay: A. Herbicidal pre-emergence efficacy, AMARE
Method in brief: as §1

[13] = system: Abutilon theophrasti (ABUTH); assay: B. Herbicidal post-emergence efficacy, ABUTH; details: rated visually after about 3 weeks
Method in brief: (§5)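 Post-emergence foliar spray, at application rates of 1280 g/ha or less, on one-leaf-stage plants 2–3 weeks post-sowing, using aqueous WP or EC suspensions with 0.5% additive at 600 L/ha. Visual percent efficacy relative to untreated plants scored roughly 3 weeks later in the greenhouse.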

[14] = system: Echinochloa crus-galli (ECHCG); assay: B. Herbicidal post-emergence efficacy, ECHCG; details: 1280 g/ha, rated visually after about 3 weeks
Method in brief: as §5

[15] = system: Kochia scoparia (KCHSC); assay: B. Herbicidal post-emergence efficacy, KCHSC; details: for Post-emergence efficacy against KCHSC in %: rated visually after about 3 weeks; for Post-emergence efficacy against KCHSC: 1280 g/ha
Method in brief: as §5

[16] = system: Stellaria media (STEME); assay: B. Herbicidal post-emergence efficacy, STEME
Method in brief: as §5

[17] = system: Digitaria sanguinalis (DIGSA); assay: B. Herbicidal post-emergence efficacy, DIGSA; details: rated visually after about 3 weeks
Experimental: (§6) Seeds of mono- and dicotyledonous weed plants were placed in plastic pots in sandy loam soil (doubly sown with in each case one species of mono- or dicotyledonous weed plants per pot), covered with soil and cultivated in a greenhouse under controlled growth conditions. 2 to 3 weeks after sowing, the test plants were treated at the one-leaf stage. The compounds of the invention, formulated in the form of wettable powders (WP) or as emulsion concentrates (EC), were applied onto the green parts of the plants as aqueous suspension or emulsion with addition of 0.5% additive at a water application rate of 600 liters per hectare (converted). After the test plants had been kept in the greenhouse under optimum growth conditions for about 3 weeks, the activity of the preparations was rated visually in comparison to untreated controls.
(§7) For example, • 100% efficacy=plants have died, • 0% efficacy=like untreated control plants
(§8) Tables B1a to B12c below show the effects of selected inventive compounds of the general formula (I) according to table 1 on various harmful plants at an application rate corresponding to 1280 g/ha or less, which were obtained by the experimental procedure mentioned above.

[18] = system: Poa annua (POAAN); assay: B. Herbicidal post-emergence efficacy, POAAN
Method in brief: as §5

[19] = system: Setaria viridis (SETVI); assay: B. Herbicidal post-emergence efficacy, SETVI; details: 1280 g/ha
Experimental: as §6, §7, §8

[20] = system: Veronica persica (VERPE); assay: B. Herbicidal post-emergence efficacy, VERPE
Method in brief: as §5

[21] = system: Amaranthus retroflexus (AMARE); assay: B. Herbicidal post-emergence efficacy, AMARE
Method in brief: as §5

[22] = 320 g/ha, scored visually after about 3 weeks vs untreated controls
[23] = pre-emergence, dosage 1280 g/ha

Compound | Pre-emergence efficacy against ABUTH ([1]; 1280 g/ha) [%] | Pre-emergence efficacy against DIGSA ([3]; 320 g/ha) [%] | Pre-emergence efficacy against DIGSA ([3]; 1280 g/ha) [%] | Pre-emergence efficacy against ECHCG ([4]; 320 g/ha) [%] | Pre-emergence efficacy against ECHCG ([4]; 1280 g/ha) [%] | Pre-emergence efficacy against KCHSC ([5]; dosage 1280 g/ha) [%] | Pre-emergence efficacy against LOLRI ([6]; dosage 1280 g/ha) [%] | Pre-emergence efficacy against MATIN [7, 23] [%] | Pre-emergence efficacy against POAAN ([8]; dosage 320 g/ha) [%] | Pre-emergence efficacy against POAAN ([8]; dosage 1280 g/ha) [%] | Pre-emergence efficacy against SETVI ([9]; dosage 320 g/ha) [%] | Pre-emergence efficacy against SETVI ([9]; dosage 1280 g/ha) [%] | Pre-emergence efficacy against STEME ([10]; dosage 320 g/ha) [%] | Pre-emergence efficacy against STEME ([10]; dosage 1280 g/ha) [%] | Pre-emergence efficacy against VERPE in % ([11]; 1280 g/ha) [%] | Pre-emergence efficacy against AMARE in % ([12]; 320 g/ha) [%] | Pre-emergence efficacy against AMARE in % ([12]; 1280 g/ha) [%] | Post-emergence efficacy against ABUTH in % ([13]; 1280 g/ha) [%] | Post-emergence efficacy against KCHSC [15] [%] | Post-emergence efficacy against STEME ([16]; 1280 g/ha) [%] | further results
O=S(=O)(CCCC(F)(F)F)Oc1c(Br)cccc1Oc1ncc(F)cn1 [Example I-44] | 100 | 100 | 100 | 100 | 100 | 100 | 100 | 100 | 100 | 100 | 100 | 100 | 100 | 100 | 100 | 100 | 100 | 100 | 100 | 100 | Pre-emergence efficacy against ALOMY [2]: 100%; Pre-emergence efficacy against KCHSC ([5]; dosage 320 g/ha): 100%; Pre-emergence efficacy against LOLRI ([6]; dosage 320 g/ha): 100%; Pre-emergence efficacy against MATIN [7, 22]: 90%; Pre-emergence efficacy against STEME ([10]; dosage 80 g/ha): 100%; Pre-emergence efficacy against VERPE in % ([11]; 320 g/ha): 100%; Pre-emergence efficacy against AMARE in % ([12]; 80 g/ha): 100%; Post-emergence efficacy against ABUTH in % ([13]; 320 g/ha): 90%; Post-emergence efficacy against ECHCG in % [14]: 100%; Post-emergence efficacy against KCHSC in % ([15]; 80 g/ha): 100%; Post-emergence efficacy against KCHSC in % ([15]; 320 g/ha): 100%; Post-emergence efficacy against STEME ([16]; 80 g/ha): 100%; Post-emergence efficacy against STEME ([16]; 320 g/ha): 100%
N#Cc1cc(Cl)cnc1Oc1ccccc1OS(=O)(=O)CCCCl [Example I-59] | 90 | 100 | 100 |  | 100 | 100 | 90 | 100 | 100 | 100 | 100 | 100 | 100 | 100 | 100 | 100 | 100 | 90 | 90 | 90 | Pre-emergence efficacy against KCHSC ([5]; dosage 320 g/ha): 100%; Pre-emergence efficacy against MATIN [7, 22]: 90%; Pre-emergence efficacy against STEME ([10]; dosage 80 g/ha): 90%; Pre-emergence efficacy against VERPE in % ([11]; 320 g/ha): 90%; Pre-emergence efficacy against AMARE in % ([12]; 80 g/ha): 100%; Post-emergence efficacy against ABUTH in % ([13]; 320 g/ha): 90%; Post-emergence efficacy against DIGSA in % ([17]; 320 g/ha): 90%; Post-emergence efficacy against DIGSA in % ([17]; 1280 g/ha): 90%; Post-emergence efficacy against KCHSC in % ([15]; 320 g/ha): 90%; Post-emergence efficacy against POAAN ([18]; 1280 g/ha): 90%; Post-emergence efficacy against SETVI [19]: 90%; Post-emergence efficacy against STEME ([16]; 320 g/ha): 90%; Post-emergence efficacy against VERPE ([20]; 80 g/ha): 90%; Post-emergence efficacy against VERPE ([20]; 320 g/ha): 90%; Post-emergence efficacy against VERPE ([20]; 1280 g/ha): 90%; Post-emergence efficacy against AMARE ([21]; 80 g/ha): 90%; Post-emergence efficacy against AMARE ([21]; 320 g/ha): 90%; Post-emergence efficacy against AMARE ([21]; 1280 g/ha): 90%
O=S(=O)(CC1CCCO1)Oc1c(F)cccc1Oc1ncc(Cl)cn1 (stereo not shown) [Example I-54] | 100 | 90 | 100 | 100 | 100 | 90 | 90 | 90 | 90 | 100 | 100 | 100 | 90 | 100 | 90 | 100 | 100 | 90 | 90 | 90 | Pre-emergence efficacy against ABUTH ([1]; 320 g/ha): 90%; Post-emergence efficacy against DIGSA in % ([17]; 1280 g/ha): 90%; Post-emergence efficacy against ECHCG in % [14]: 90%; Post-emergence efficacy against POAAN ([18]; 1280 g/ha): 90%; Post-emergence efficacy against SETVI [19]: 90%; Post-emergence efficacy against VERPE ([20]; 80 g/ha): 90%; Post-emergence efficacy against VERPE ([20]; 320 g/ha): 90%; Post-emergence efficacy against VERPE ([20]; 1280 g/ha): 90%; Post-emergence efficacy against AMARE ([21]; 1280 g/ha): 90%
Cc1cccc(Oc2ncc(Br)cn2)c1OS(=O)(=O)CCC(F)(F)F [Example I-33] | 100 | 100 | 100 | 100 | 100 |  | 100 | 90 | 100 | 100 | 100 | 100 | 100 | 100 | 100 | 100 | 100 | 100 | 100 | 100 | Pre-emergence efficacy against ABUTH ([1]; 320 g/ha): 100%; Pre-emergence efficacy against STEME ([10]; dosage 80 g/ha): 100%; Pre-emergence efficacy against VERPE in % ([11]; 320 g/ha): 100%; Pre-emergence efficacy against VERPE ([11]; dosage 80 g/ha): 90%; Pre-emergence efficacy against AMARE in % ([12]; 80 g/ha): 90%; Post-emergence efficacy against ABUTH in % ([13]; 320 g/ha): 90%; Post-emergence efficacy against DIGSA in % ([17]; 1280 g/ha): 90%; Post-emergence efficacy against ECHCG in % [14]: 100%; Post-emergence efficacy against POAAN ([18]; 320 g/ha): 90%; Post-emergence efficacy against POAAN ([18]; 1280 g/ha): 100%; Post-emergence efficacy against SETVI [19]: 100%; Post-emergence efficacy against STEME ([16]; 80 g/ha): 90%; Post-emergence efficacy against STEME ([16]; 320 g/ha): 100%; Post-emergence efficacy against VERPE ([20]; 80 g/ha): 100%; Post-emergence efficacy against VERPE ([20]; 320 g/ha): 100%; Post-emergence efficacy against VERPE ([20]; 1280 g/ha): 100%; Post-emergence efficacy against AMARE ([21]; 320 g/ha): 90%; Post-emergence efficacy against AMARE ([21]; 1280 g/ha): 100%
